T1: Cytochrome P450 1A1 (Homo sapiens, UniProt P04798)
T1 sequence (P04798 whole entry): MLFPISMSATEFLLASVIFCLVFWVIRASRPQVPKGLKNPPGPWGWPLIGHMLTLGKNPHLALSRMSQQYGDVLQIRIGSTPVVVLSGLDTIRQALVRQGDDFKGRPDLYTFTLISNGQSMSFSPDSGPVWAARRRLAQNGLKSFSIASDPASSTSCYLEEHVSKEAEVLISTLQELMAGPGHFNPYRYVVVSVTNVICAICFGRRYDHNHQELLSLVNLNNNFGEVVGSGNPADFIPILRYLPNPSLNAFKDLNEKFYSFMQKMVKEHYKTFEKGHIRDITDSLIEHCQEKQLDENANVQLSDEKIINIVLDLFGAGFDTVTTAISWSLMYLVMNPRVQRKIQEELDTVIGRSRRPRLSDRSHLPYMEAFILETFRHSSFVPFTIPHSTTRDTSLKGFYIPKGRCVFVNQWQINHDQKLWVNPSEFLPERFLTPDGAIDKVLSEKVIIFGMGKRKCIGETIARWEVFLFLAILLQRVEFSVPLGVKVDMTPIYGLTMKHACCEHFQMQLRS

T2: Cytochrome P450 1A2 (Homo sapiens, UniProt P05177)
T2 sequence (P05177 whole entry): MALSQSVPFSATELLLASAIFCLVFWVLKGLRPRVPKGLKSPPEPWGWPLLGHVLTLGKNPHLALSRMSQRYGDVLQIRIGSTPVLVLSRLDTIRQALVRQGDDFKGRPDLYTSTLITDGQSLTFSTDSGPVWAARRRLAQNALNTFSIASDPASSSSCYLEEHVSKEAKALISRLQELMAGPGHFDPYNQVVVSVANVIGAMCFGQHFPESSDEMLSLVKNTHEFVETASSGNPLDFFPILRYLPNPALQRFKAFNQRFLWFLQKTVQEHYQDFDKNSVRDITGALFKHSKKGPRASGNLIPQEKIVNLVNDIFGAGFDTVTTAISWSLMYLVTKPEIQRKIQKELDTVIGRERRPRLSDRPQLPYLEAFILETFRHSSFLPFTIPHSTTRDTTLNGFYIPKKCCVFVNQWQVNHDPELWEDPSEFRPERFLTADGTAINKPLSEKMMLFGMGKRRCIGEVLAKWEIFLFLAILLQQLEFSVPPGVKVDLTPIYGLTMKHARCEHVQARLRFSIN

T3: Cytochrome P450 2B6 (Homo sapiens, UniProt P20813)
T3 sequence (P20813 whole entry): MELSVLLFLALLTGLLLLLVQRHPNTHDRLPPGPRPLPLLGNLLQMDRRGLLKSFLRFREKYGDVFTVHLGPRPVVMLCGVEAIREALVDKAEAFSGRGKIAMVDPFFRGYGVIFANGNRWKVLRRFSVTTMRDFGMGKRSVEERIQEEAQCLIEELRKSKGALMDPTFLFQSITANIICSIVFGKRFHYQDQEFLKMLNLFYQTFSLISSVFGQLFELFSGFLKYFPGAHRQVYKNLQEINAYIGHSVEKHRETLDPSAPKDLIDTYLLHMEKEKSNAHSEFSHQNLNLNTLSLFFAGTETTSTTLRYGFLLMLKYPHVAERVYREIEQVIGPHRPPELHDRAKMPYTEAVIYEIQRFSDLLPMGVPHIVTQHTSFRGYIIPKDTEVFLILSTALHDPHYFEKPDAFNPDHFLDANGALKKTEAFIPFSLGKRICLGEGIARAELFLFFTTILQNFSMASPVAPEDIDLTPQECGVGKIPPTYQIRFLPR

T4: Cytochrome P450 4F3 (Homo sapiens, UniProt Q08477)
T4 sequence (Q08477 whole entry): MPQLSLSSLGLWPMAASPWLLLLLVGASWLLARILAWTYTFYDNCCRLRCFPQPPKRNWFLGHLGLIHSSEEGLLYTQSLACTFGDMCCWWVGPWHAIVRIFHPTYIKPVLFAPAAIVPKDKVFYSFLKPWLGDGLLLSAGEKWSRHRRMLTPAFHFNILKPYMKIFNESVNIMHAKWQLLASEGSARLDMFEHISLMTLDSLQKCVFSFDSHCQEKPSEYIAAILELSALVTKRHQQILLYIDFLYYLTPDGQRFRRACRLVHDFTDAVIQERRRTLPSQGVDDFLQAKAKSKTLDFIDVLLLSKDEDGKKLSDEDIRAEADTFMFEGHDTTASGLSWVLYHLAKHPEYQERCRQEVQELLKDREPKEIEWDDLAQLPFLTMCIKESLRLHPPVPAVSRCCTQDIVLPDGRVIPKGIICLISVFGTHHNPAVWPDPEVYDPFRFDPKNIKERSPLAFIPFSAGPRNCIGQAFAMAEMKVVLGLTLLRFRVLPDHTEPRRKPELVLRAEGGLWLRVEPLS

B1: Aldo-keto reductase family 1 member C2 (Homo sapiens) (protein)
chain: MDSKYQCVKLNDGHFMPVLGFGTYAPAEVPKSKALEAVKLAIEAGFHHIDSAHVYNNEEQVGLAIRSKIADGSVKREDIFYTSKLWSNSHRPELVRPALERSLKNLQLDYVDLYLIHFPVSVKPGEEVIPKDENGKILFDTVDLCATWEAMEKCKDAGLAKSIGVSNFNHRLLEMILNKPGLKYKPVCNQVECHPYFNQRKLLDFCKSKDIVLVAYSALGSHREEPWVDPNSPVLLEDPVLCALAKKHKRTPALIALRYQLQRGVVVLAKSYNEQRIRQNVQVFEFQLTSEEMKAIDGLNRNVRYLTLDIFAGPPNYPFSDEY

Assays:
[1] = Retention time of the compound by LC-MS/MS method; format: physicochemical
[2] = system: Plasma; experiment: Drug metabolism in human plasma treated with [14C]boceprevir assessed as ratio of drug level by LC-MS/MS method relative to boceprevir; format: ADME, cell-free
[3] = target: T5, Cytochrome P450 3A4 (Homo sapiens, UniProt P08684); experiment: Drug metabolism assessed as human CYP3A4-mediated compound formation from 5 uM [14C]boceprevir after 120 mins by LC-MS/FSA method relative to total [14C]boceprevir; format: ADME; details: recombinant enzyme, 2 h
T5 sequence (P08684 whole entry): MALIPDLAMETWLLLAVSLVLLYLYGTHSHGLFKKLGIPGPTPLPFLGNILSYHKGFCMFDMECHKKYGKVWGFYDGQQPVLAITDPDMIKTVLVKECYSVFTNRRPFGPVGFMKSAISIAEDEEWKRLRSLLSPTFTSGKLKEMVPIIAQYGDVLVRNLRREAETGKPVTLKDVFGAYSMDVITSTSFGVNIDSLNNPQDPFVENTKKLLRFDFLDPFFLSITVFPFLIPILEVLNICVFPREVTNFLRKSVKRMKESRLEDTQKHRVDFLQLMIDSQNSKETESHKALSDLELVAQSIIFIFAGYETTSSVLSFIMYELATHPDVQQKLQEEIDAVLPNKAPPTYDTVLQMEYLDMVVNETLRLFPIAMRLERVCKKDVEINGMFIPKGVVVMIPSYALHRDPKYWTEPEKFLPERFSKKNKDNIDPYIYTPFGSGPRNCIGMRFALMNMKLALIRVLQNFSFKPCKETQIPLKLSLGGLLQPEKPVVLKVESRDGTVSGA

[4] = target: T5, Cytochrome P450 3A4; experiment: Drug metabolism assessed as human CYP3A4-mediated compound formation from 20 uM [14C]boceprevir after 120 mins by LC-MS/FSA method relative to total [14C]boceprevir; format: ADME; details: recombinant enzyme, 2 h
[5] = target: T6, Cytochrome P450 3A5 (Homo sapiens, UniProt P20815); experiment: Drug metabolism assessed as human CYP3A5-mediated compound formation from 5 uM [14C]boceprevir after 120 mins by LC-MS/FSA method relative to total [14C]boceprevir; format: ADME; details: recombinant enzyme, 2 h
T6 sequence (P20815 whole entry): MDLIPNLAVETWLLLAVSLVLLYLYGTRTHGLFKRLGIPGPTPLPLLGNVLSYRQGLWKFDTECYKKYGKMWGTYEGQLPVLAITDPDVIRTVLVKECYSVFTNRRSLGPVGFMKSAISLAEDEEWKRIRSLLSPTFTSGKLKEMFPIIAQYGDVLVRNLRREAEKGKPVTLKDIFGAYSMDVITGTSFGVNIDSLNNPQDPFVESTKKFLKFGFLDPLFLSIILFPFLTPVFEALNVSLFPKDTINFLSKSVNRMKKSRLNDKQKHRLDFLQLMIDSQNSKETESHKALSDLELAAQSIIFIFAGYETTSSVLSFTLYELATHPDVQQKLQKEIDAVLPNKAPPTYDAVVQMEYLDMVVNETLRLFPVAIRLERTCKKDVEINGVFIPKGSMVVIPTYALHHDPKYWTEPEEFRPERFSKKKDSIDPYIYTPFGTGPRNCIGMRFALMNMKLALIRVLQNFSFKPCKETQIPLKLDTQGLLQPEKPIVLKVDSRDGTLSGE

[6] = target: T6, Cytochrome P450 3A5; experiment: Drug metabolism assessed as human CYP3A5-mediated compound formation from 20 uM [14C]boceprevir after 120 mins by LC-MS/FSA method relative to total [14C]boceprevir; format: ADME; details: recombinant enzyme, 2 h
[7] = target: Cytochrome P450 2D6 (Homo sapiens, UniProt P10635); experiment: Drug metabolism assessed as human CYP2D6-mediated compound formation from 5 uM [14C]boceprevir after 120 mins by LC-MS/FSA method relative to total [14C]boceprevir; format: ADME; details: recombinant enzyme, 2 h
Sequence of Cytochrome P450 2D6 (P10635 whole entry): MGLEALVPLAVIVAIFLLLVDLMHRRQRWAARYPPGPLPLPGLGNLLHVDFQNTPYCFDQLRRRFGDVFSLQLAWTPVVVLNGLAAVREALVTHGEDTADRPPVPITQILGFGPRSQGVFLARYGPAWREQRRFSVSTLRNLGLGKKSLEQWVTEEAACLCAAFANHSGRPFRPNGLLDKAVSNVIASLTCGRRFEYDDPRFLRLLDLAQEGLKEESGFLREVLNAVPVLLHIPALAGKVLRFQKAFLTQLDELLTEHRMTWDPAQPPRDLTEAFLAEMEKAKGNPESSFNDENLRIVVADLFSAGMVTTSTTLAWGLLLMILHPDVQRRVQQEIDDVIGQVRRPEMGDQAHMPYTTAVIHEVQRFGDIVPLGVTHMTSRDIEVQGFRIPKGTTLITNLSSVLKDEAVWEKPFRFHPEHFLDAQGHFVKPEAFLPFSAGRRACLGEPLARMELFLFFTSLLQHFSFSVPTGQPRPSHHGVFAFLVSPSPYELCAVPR

[8] = target: T1, Cytochrome P450 1A1; experiment: (§1) Drug metabolism assessed as human […]-mediated compound formation from 5 uM [14C]boceprevir after 120 mins by LC-MS/FSA method relative to total [14C]boceprevir; format: ADME; details: recombinant enzyme, 2 h
[9] = target: T2, Cytochrome P450 1A2; experiment: as §1; format: ADME; details: recombinant enzyme, 2 h
[10] = target: T3, Cytochrome P450 2B6; experiment: Drug metabolism assessed as human CYP2B6-mediated compound formation from 5 uM [14C]boceprevir after 120 mins by LC-MS/FSA method relative to total [14C]boceprevir; format: ADME; details: recombinant enzyme, 2 h
[11] = target: T4, Cytochrome P450 4F3; experiment: Drug metabolism assessed as human CYP4F3A-mediated compound formation from 5 uM [14C]boceprevir after 120 mins by LC-MS/FSA method relative to total [14C]boceprevir; format: ADME; details: recombinant enzyme, 2 h
[12] = Drug metabolism in human liver mitochondria treated with 20 uM assessed as compound formation in presence of NADPH generating system by LC-MS/MS/FSA method; format: ADME
[13] = system: Liver cytosol; experiment: Drug metabolism in human liver cytosol treated with 20 uM [14C]SCH 534129 assessed as 100 uM diazepam-mediated inhibition of metabolite formation LC-MS/MS/FSA method; format: ADME, tissue-based; parameters: interact cpd dose 100 uM
[14] = system: Liver cytosol; experiment: Drug metabolism in human liver cytosol treated with 20 uM [14C]SCH 534129 assessed as 1 mM ibuprofen-mediated inhibition of metabolite formation LC-MS/MS/FSA method; format: ADME, tissue-based; parameters: interact cpd dose 1 mM
[15] = Drug metabolism in human liver S9 fraction treated with 20 uM assessed as compound formation in presence of NADPH generating system by LC-MS/MS/FSA method; format: ADME, subcellular
[16] = system: Liver cytosol; experiment: Drug metabolism in human liver cytosol treated with 20 uM assessed as compound formation in presence of NADPH generating system by LC-MS/MS/FSA method; format: ADME
[17] = substrate: CC(C)(C)NC(=O)N[C@H](C(=O)N1C[C@H]2[C@@H]([C@H]1C(=O)NC(CC1CCC1)C(=O)C(N)=O)C2(C)C)C(C)(C)C; experiment: Activity of human recombinant AKR1C2 expressed in HEK293 cells assessed as (1R,2S,5S)-N-((2S,3R)-4-amino-1-cyclobutyl-3-hydroxy-4-oxobutan-2-yl)-3-((S)-2-(3-tert-butylureido)-3,3-dimethylbutanoyl)-6,6-dimethyl-3-azabicyclo[3.1.0]hexane-2-carboxamide formation after 120 mins in presence of NADPH by LC-MS/MS/FSA method; format: ADME, cell-based

Molecule	Retention_time [1] [min]	Compound recovery [2]	Compound recovery [3] [%]	Compound recovery [4] [%]	Compound recovery [5] [%]	Compound recovery [6] [%]	Compound recovery [7] [%]	Compound recovery [8] [%]	Compound recovery [9] [%]	Compound recovery [10] [%]	Compound recovery [11] [%]	Compound recovery [12] [%]	inhibition (INH) [13] [%]	inhibition (INH) [14] [%]	Compound recovery [15] [%]	Compound recovery [16] [%]	Km [17] [µM]	Vmax [17] [µmol/min]
CC(C)(C)NC(=O)N[C@H](C(=O)N1C[C@H]2[C@@H]([C@H]1C(N)=O)C2(C)C)C(C)(C)C	22.2	10%	< 3.45	< 4.64	15.74	2.87	1.9	2.9	1.37	2.06	0.61							
CC(C)(C)NC(=O)N[C@H](C(=O)N1C[C@H]2[C@@H]([C@H]1C(=O)N[C@H](CC1CCC1)[C@@H](O)C(N)=O)C2(C)C)C(C)(C)C	43.1	>= 50%										32	78	63	32	32		
B1																	52.3	4.07e-05

Source: ChEMBL document CHEMBL3526141, “Characterization of human liver enzymes involved in the biotransformation of boceprevir, a hepatitis C virus protease inhibitor” (Drug Metab Dispos, 2011)
